Test results as given in patent US10772324B2, “Aqueous adjuvant-compositions” (CLARIANT FINANCE (BVI) LIMITED, priority 2012, dated 2020).

Assays:
Assay in all cases: Greenhouse trial: effect of adjuvants on activity of glyphosate IPA (fresh weight)
Format in all cases: in vivo
[1] = system: Cirsium arvense L. (CIRAR); details: fresh weight relative to untreated plant, 14 days after application; 20.3 g a.e./ha glyphosate IPA; adjuvant 0.25 wt % in spray solution
Experimental: (§1) For the purpose of determining the biological activity, greenhouse trials were carried out with glyphosate on Echinochloa crus-galli (L.) Beauv. (ECHCG), Cirsium arvense L. (CIRAR), and Solanum nigrum L. (SOLNI). The plants were cultivated in a greenhouse under 14 hours of irradiation with light at a temperature of 19/14 (±0.5°) C. (day/night) and a relative humidity of 70/80 (±5)% (day/night). The light was supplied via high-pressure sodium lamps, high-pressure mercury lamps, and fluorescent tubes, producing a power of 70 W/m^2 at the leaf level. The plants were grown in 12 cm diameter plastic pots filled with a mixture of sand and humus in a sand:humus ratio of 1:2 by volume.
(§2) The pots were placed on an under-soil watering mat, which was wetted daily with a medium-strength nutrient solution. Following their appearance at the substrate surface, seedlings were thinned out to five (ECHCG), two (CIRAR), or one (SOLNI) plant per pot for the activity tests.
(§3) The spray solutions were applied using a laboratory sprayer operated with compressed air and fitted with a Teejet TP8003E nozzle at an application rate of 200 l/ha to the plants at 303 kPa. ECHCG was treated at the two- to three-leaf stage; CIRAR and SOLNI were treated at the four-leaf stage.
(§4) For the more differentiated examination of the adjuvant effect, the glyphosate active ingredient was underdosed, meaning that the plants are not completely killed. This was done using aqueous solutions of glyphosate-isopropylammonium salt (glyphosate IPA). The amount of glyphosate used was 33.8 g a.e./ha glyphosate IPA (corresponding to 1.0 mmol or 0.17 g a.e./l for a liquid volume of […]) in the case of ECHCG, and at 20.3 g a.e./ha glyphosate IPA (corresponding to […] or 0.10 g a.e./l at a liquid volume of 200 l/ha) for CIRAR and SOLNI. […]
(§5) The activity of the various adjuvants was assessed 14 days after application, by determining the mass of the plant parts still present (fresh weight; FW), and was reported as a percentage fraction, relative to the untreated plant (Table 3).

[2] = system: Echinochloa crus-galli (L.) Beauv. (ECHCG); details: fresh weight relative to untreated plant, 14 days after application; 33.8 g a.e./ha glyphosate IPA; adjuvant 0.25 wt % in spray solution
Experimental: as §1, §2, §3, §4, §5

[3] = system: Solanum nigrum L. (SOLNI); details: fresh weight relative to untreated plant, 14 days after application; 20.3 g a.e./ha glyphosate IPA; adjuvant 0.25 wt % in spray solution
Experimental: as §1, §2, §3, §4, §5

For “glyphosate-isopropylammonium salt [Glyphosate IPA]”, the “FW in % (CIRAR)” value [1] was 95.9%, the “FW in % (ECHCG)” value [2] was 74.3% and the “FW in % (SOLNI)” value [3] was 84.5%.
